According to patent US8252522B2, “Species detection methods and systems” (The Regents of the University of California, priority 2007, dated 2012):

Key:
bacterial spores [1] = settings: steady-state, incubated for five minutes
Description: (§1) A solution of a benzothiazole dye, THIA, was used (FIG. 1a), in a continuous-flow microfluidic device for detection of bacterial species, as described for a terbium (III) different emission assay.
(§2) For the steady-state experiments the dye is mixed with the samples and allowed to incubate for five minutes. In the microfluidic device, however, the dye is mixed with the bacterial sample and carried to the area for emission detection in about few seconds after the mixing.

[2] = test system: bacterial spores vs vegetative bacteria; settings: microfluidic device, detection about few seconds after mixing
Description: as §1, §2

[3] = test system: different bacteria (E. coli and two bacilli)
Description: Kinetics of fluorescence enhancement of 64 μM THIA in the presence of different bacteria (10^6 cell/mL) in TRIS buffer, pH=8.5 (λex=420 nm, λem=470 nm). The time constants, τ, are inversely proportional to the rate constants, k=1/τ. The biexponential data fits assume pseudo-first-order processes. At about 50 s into the data acquisition, the bacteria are injected and into a stirred solution of the dye.
To simplify the kinetic analysis, the assays can be conducted under two types of extreme conditions that will assure that the first step, k1, can be approximated to pseudo-first-order process: (1) the dye is in excess to the binding sites on the bacterial surface; or (2) the binding sites on the bacterial surface are in excess to the dye. Under such conditions, the kinetics of fluorescence enhancement should manifest bi- (or multi-) exponential rises:
[formula] where FM is the maximum fluorescence intensity (the saturation level on the curves); dt is the injection time; Fi are the pre-exponential coefficients; and ti are the time constants for the various processes: τi=1/ki. […]
The samples are illuminated at a region where the staining dye absorbs and the emission is monitored (the fluorescence intensity is recorded every second) at the wavelength maximum of the fluorescence spectrum of the dye (FIG. 2). […] This plateau emission maximum is what is measured with the regular staining procedures. […]

bacterial spores [4] = settings: within the duration of the mixing

CCN1/C(=C/c2sc3ccccc3[n+]2CC)Sc2ccccc21.[I-] [THIA, 3,3′-Diethylthiacyanine iodide]
increase in emission intensity in the presence of bacterial spores (bacterial spores [1]): about an order of magnitude increase
signal from bacterial spores relative to signal from vegetative bacteria [2]: about 13 times
response to staining ([3]; all three species): positive response
duration of the emission intensity increase after initial mixing ([3]; vegetative bacteria): continues to increase for several minutes
time of emission enhancement by bacterial spores (bacterial spores [4]): within a second or less
